The values that follow come from patent US20250213555A1, “SUBSTITUTED TETRAHYDROFURAN ANALOGS AS MODULATORS OF SODIUM CHANNELS” (VERTEX PHARMACEUTICALS INCORPORATED, priority 2021, published 2025).

In the assay the target is human Nav 1.8 (Homo sapiens, UniProt Q9Y5Y9). As to the kind of experiment: E-VIPR assay detecting and measuring Nav inhibition properties. The format is cell-based. The conditions noted are these: HEK cells expressing a truncated form of human Nav 1.8; compound numbers without "*" (not marked as run in the presence of human serum); read-out: measured IC50 value in the E-VIPR Assay. An excerpt: E-VIPR Assay Detecting and Measuring Nav Inhibition Properties
human Nav 1.8, sequence (Q9Y5Y9 126-399 limits assumed): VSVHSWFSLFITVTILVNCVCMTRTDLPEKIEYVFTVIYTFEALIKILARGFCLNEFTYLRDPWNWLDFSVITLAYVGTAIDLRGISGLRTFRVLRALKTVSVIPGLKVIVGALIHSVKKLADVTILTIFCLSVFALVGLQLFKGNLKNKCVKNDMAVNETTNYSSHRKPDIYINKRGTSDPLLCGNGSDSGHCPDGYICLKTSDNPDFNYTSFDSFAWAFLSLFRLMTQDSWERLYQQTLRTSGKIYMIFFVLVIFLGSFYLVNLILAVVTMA
human Nav 1.8, sequence (Q9Y5Y9 660-890 limits assumed): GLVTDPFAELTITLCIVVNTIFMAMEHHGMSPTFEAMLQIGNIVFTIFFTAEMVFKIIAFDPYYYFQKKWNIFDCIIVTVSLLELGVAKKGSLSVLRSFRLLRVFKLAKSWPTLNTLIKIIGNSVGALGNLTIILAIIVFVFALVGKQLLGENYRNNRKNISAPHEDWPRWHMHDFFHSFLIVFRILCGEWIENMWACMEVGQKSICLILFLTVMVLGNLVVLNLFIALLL
human Nav 1.8, sequence (Q9Y5Y9 1148-1722 limits assumed): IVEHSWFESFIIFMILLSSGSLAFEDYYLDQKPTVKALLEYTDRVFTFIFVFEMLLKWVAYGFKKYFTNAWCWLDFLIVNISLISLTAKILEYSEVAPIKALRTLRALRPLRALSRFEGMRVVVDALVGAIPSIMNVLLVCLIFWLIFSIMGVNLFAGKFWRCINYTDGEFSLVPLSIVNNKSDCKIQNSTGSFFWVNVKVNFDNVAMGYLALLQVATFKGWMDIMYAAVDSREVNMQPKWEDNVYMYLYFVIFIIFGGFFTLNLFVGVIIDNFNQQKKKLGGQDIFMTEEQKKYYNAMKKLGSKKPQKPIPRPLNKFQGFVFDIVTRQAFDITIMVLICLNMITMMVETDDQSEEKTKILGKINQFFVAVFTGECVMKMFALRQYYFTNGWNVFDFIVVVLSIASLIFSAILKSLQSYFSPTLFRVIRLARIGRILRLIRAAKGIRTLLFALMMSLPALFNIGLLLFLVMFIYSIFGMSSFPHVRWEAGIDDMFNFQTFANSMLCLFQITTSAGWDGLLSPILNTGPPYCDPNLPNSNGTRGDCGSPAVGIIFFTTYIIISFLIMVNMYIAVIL
Sodium ion channels are voltage-dependent proteins that can be activated by inducing membrane voltage changes by applying electric fields. The electrical stimulation instrument and methods of use, referred to as E-VIPR, are described in International Publication No. WO 2002/008748 A3 and C.-J. Huang et al. Characterization of voltage-gated sodium channel blockers by electrical stimulation and fluorescence detection of membrane potential, 24 Nature Biotech. 439-46 (2006), both of which are incorporated by reference in their entirety. The instrument comprises a microtiter plate handler, an optical system for exciting the coumarin dye while simultaneously recording the coumarin and oxonol emissions, a waveform generator, a current- or voltage-controlled amplifier, and parallel electrode pairs that are inserted into assay plate wells. Under integrated computer control, this instrument passes user-programmed electrical stimulus protocols to cells within the wells of the microtiter plate.
16-20 hours prior to running the assay on E-VIPR, HEK cells expressing a truncated form of human Nav 1.8 with full channel activity were seeded into microtiter 384-well plates, pre-coated with matrigel, at a density of 25,000 cells per well. 2.5-5% KIR2.1 Bacmam virus was added to the final cell suspension before seeding into cell plates. HEK cells were grown in Dulbecco's Modified Eagle's Medium (DMEM) supplemented with 10% FBS (Fetal Bovine Serum, qualified; Sigma #F4135), 1% NEAA (Non-Essential Amino Acids, Gibco #11140), 1% HEPES (Gibco #15630), 1% Pen-Strep (Penicillin-Streptomycin; Gibco #15140) and 5 μg/ml Blasticidin (Gibco #R^210-01). Cells were expanded in vented cap cell culture flasks, with 90-95% humidity and 5% CO2.
100 mg/mL Pluronic F-127 (Sigma #P2443), in dry DMSO
Compound Plates: Corning 384-well Polypropylene Round Bottom #3656
Cell Plates: 384-well tissue culture treated plates (Greiner #781091-2B)
2.5-5% KIR 2.1 Bacmam virus (produced in-house), prepared as described in Section 3.3 of J. A. Fornwald et al., Gene Expression in Mammalian Cells Using BacMam, a Modified Baculovirus System, 1350 Methods in Molecular Biology 95-116 (2016), the entire contents of which are incorporated by reference. The concentration used can be dependent on viral titer of each batch.
5 mM DiSBAC6(3), a voltage sensitive oxonol acceptor (CAS number 169211-44-3; 5-[3-(1,3-dihexylhexahydro-4,6-dioxo-2-thioxo-5-pyrimidinyl)-2-propen-1-ylidene]-1,3-dihexyldihydro-2-thioxo-4,6 (1H,5H)-pyrimidinedione), in dry DMSO. The preparation of DiSBAC6(3) is analogous to that of DiSBAC4(3) as described in Voltage Sensing by Fluorescence Resonance Energy Transfer in Single Cells, Gonzalez, J. E. and Tsien, R. Y. (1995) Biophys. J. 69, 1272-1280.
5 mM CC2-DMPE, a commercially available membrane-bound coumarin phospholipid FRET donor (ThermoFisher Scientific catalog number K1017, CAS number 393782-57-5; tetradecanoic acid, 1,1′-[(1R)-1-[8-(6-chloro-7-hydroxy-2-oxo-2H-1-benzopyran-3-yl)-3-hydroxy-3-oxido-8-oxo-2,4-dioxa-7-aza-3-phosphaoct-1-yl]-1,2-ethanediyl] ester) was prepared in dry DMSO. See also, Improved indicators of cell membrane potential that use fluorescence resonance energy transfer, Gonzalez, J. E. and Tsien, R. Y. (1997) Chem. Biol. 4, 269-277.
Voltage Assay Background Suppression Compound (VABSC-1) is prepared in H2O (89-363 mM, range used to maintain solubility)
Human Serum (HS, Millipore #S1P1-01KL, or Sigma SLBR5469V and SLBR5470V as a 50%/50% mixture, for 25% assay final concentration)
• Sodium Chloride 160 mM (9.35 g/L), Potassium Chloride, 4.5 mM (0.335 g/L), Glucose 10 mM (1.8 g/L), Magnesium Chloride (Anhydrous) 1 mM (0.095 g/L), Calcium Chloride 2 mM (0.222 g/L), HEPES 10 mM (2.38 g/L) in water. […]
Broadly, the IC50 is the concentration needed to halve the response being measured. For the compound `C[C@H]1[C@@H](c2ccc(F)c(F)c2OCCc2nccn2C)[C@H](C(=O)Nc2ccnc(C(N)=O)c2)O[C@@]1(C)C(F)(F)F` [Compound 87, 4-((2R,3S,4S,5R)-3-(3,4-difluoro-2-(2-(1-methyl-1H-imidazol-2-yl)ethoxy)phenyl)-4,5-dimethyl-5-(trifluoromethyl)tetrahydrofuran-2-carboxamido)picolinamide], the IC50 was 0.01 to 0.1 µM.

As to `CNC(=O)c1cc(NC(=O)[C@@H]2O[C@@](C)(C(F)(F)F)[C@@H](C)[C@H]2c2ccc(F)c(F)c2OCCO)cc[n+]1[O-]` [Compound 84, 4-((2R,3S,4S,5R)-3-(3,4-difluoro-2-(2-hydroxyethoxy)phenyl)-4,5-dimethyl-5-(trifluoromethyl)tetrahydrofuran-2-carboxamido)-2-(methylcarbamoyl)pyridine 1-oxide], the IC50 was 0.01 to 0.1 µM.

As for `COc1c([C@H]2[C@H](C(=O)Nc3ccnc(C(=O)N[C@H]4CNCC[C@H]4OC)c3)O[C@@](C)(C(F)(F)F)[C@H]2C)ccc(F)c1F` [Compound 246, 4-((2R,3S,4S,5R)-3-(3,4-difluoro-2-methoxyphenyl)-4,5-dimethyl-5-(trifluoromethyl)tetrahydrofuran-2-carboxamido)-N-((3S,4R)-4-methoxypiperidin-3-yl)picolinamide], the IC50 lay within 0.1 to 1 µM.

With `COCC(COc1c([C@H]2[C@H](C(=O)Nc3ccnc(C(N)=O)c3)O[C@@](C)(C(F)(F)F)[C@H]2C)ccc(F)c1F)OC` (stereo partly drawn) [Compound 78, 4-((2R,3S,4S,5R)-3-(2-(2,3-dimethoxypropoxy)-3,4-difluorophenyl)-4,5-dimethyl-5-(trifluoromethyl)tetrahydrofuran-2-carboxamido)picolinamide], the IC50 was less than 0.01 µM.

On to `CC1C(c2ccc(F)c(F)c2OCC2CC(C)(O)C2)C(C(=O)Nc2ccnc(C(N)=O)c2)OC1(C)C(F)(F)F` [Compound 199, rel-4-((2R*,3S*,4S*,5R*)-3-(3,4-difluoro-2-(((1r,3S)-3-hydroxy-3-methylcyclobutyl)methoxy)phenyl)-4,5-dimethyl-5-(trifluoromethyl)tetrahydrofuran-2-carboxamido)picolinamide], for which the IC50 fell in the range of 0.01 to 0.1 µM.

For `COc1c([C@H]2[C@H](C(=O)Nc3ccnc(C(=O)N(C)[C@H]4CNC[C@@H]4OC)c3)O[C@@](C)(C(F)(F)F)[C@H]2C)ccc(F)c1F` [Compound 247, 4-((2R,3S,4S,5R)-3-(3,4-difluoro-2-methoxyphenyl)-4,5-dimethyl-5-(trifluoromethyl)tetrahydrofuran-2-carboxamido)-N-((3S,4S)-4-methoxypyrrolidin-3-yl)-N-methylpicolinamide], the IC50 was less than 0.01 µM.

In the case of `COc1c([C@H]2[C@H](C(=O)Nc3ccnc(C(=O)N4C[C@H](OC)[C@@H](N(C)C)C4)c3)O[C@@](C)(C(F)(F)F)[C@H]2C)ccc(F)c1F` [Compound 293, (2R,3S,4S,5R)-3-(3,4-difluoro-2-methoxyphenyl)-N-(2-((3S,4S)-3-(dimethylamino)-4-methoxypyrrolidine-1-carbonyl)pyridin-4-yl)-4,5-dimethyl-5-(trifluoromethyl)tetrahydrofuran-2-carboxamide], the IC50 was less than 0.01 µM.

As for `C[C@@H](CO)COc1c([C@H]2[C@H](C(=O)Nc3ccnc(C(N)=O)c3)O[C@@](C)(C(F)(F)F)[C@H]2C)ccc(F)c1F` [Compound 81, 4-((2R,3S,4S,5R)-3-(3,4-difluoro-2-((S)-3-hydroxy-2-methylpropoxy)phenyl)-4,5-dimethyl-5-(trifluoromethyl)tetrahydrofuran-2-carboxamido)picolinamide], the IC50 was less than 0.01 µM.

As for `C=C(CO)COc1c([C@H]2[C@H](C(=O)Nc3ccnc(C(N)=O)c3)O[C@@](C)(C(F)(F)F)[C@H]2C)ccc(F)c1F` [Compound 132], the half-maximal inhibitory concentration (IC50) is less than 0.01 µM.
